Reference: patent publication US20230390291A1, “TREATMENT OF SKIN DISORDERS WITH COMPOSITIONS COMPRISING AN EGFR INHIBITOR” (Sol-Gel Technologies Ltd., priority 2018, published 2023)
Counter-ions that a name gives are not always drawn. Like-named read-outs stand apart in the source and are kept apart here.

Legend:
[1] = tested on: psoriasis-induced human skin xenotransplants; test: Histological evaluation of psoriasis-induced xenotransplants; format: in vivo, beige-SCID mice; conditions: topical for 14 days, histology on Day 56
From the text: The objective of this study was to determine the efficacy of Erlotinib 5% as provided herein compared to the vehicle and Dexamethasone as shown at the Table below. The evaluation was based on histology analysis following application of the respective test formulations.
The efficacy study has been conducted on female mice. The total duration of the experiment was 8 weeks, upon receiving of the human skin. Normal skin from healthy volunteers were obtained for grafting. Healthy human abdominal skin pieces with a width of 0.4 mm and surface area of 1.5×1.5 cm were provided. The skin sample was preserved in isotonic saline solution and transplanted within 6-12 hours after skin donation. In addition, blood samples were collected from psoriatic patients having classic plaque psoriasis and not undergoing any treatment. 20 mL blood samples were taken from both males and females psoriatic patients (from psoriatic patients having classic plaque psoriasis and not undergoing any treatment), and peripheral blood mononuclear cells (PBMC) were separated immediately after blood withdrawal.
Mice: Beige-severe combined immunodeficient mice C.B-17/IcrHsdscid-bg (beige-SCID) mice (weight ˜25 g) were included in this study. Mice were monitored twice a week for vital signs such as weight, food intake, coat, eyes, anal genital areas, discharge/soiling, behavior and criteria related to skin transplantation. Normal healthy human donor skin were transplanted onto the beige-SCID mice as previously described (See Keren A. et al., Novel nanosome delivery system combined with siRNA targeting the antimicrobial gene DFB4: a new approach for psoriasis management?ExpDermatol. 2014; 23:464-465; Bracke S. et al.,Targeted silencing of DEFB4 in a bioengineered skin-humanized mouse model for psoriasis: development of siRNA SECosome-based novel therapies. ExpDermatol. 2014 ;23:199-201; Zaretsky M. et al., Directed evolution of a soluble human IL-17A receptor for the inhibition of psoriasis plaque formation in a mouse model. Chem Biol. 2013 21; 20:202-2; Gilhar A. et al., The beneficial effect of blocking Kv1.3 in the psoriasiform SCID mouse model. J Invest Dermatol. 2011;131:118 124; Keren A. et al., Innate lymphoid cells 3 induce psoriasis in xenotransplanted healthy human skin. J Allergy Clin Immunol. 2018;142:305-308.e6.).
British Journal of Pharmacology 2010; 159:842-855).
Four weeks following the engraftment, each mouse was injected (intradermally) with 1×10^7 IL-2 enriched allogeneic PBMC's from psoriatic patients (1×10^7 cells injected/mouse). Cells from different psoriasis patients were equally distributed between treatment groups. Each patient was represented in each treatment group.
Fourteen days following cells injections, the mice were divided into treatment groups (Table, see below) and treated according to the timeline indicated below (see Scheme 1). Each transplant was equally topically treated (50 μg) by using a sterile spatula.
Dexamethasone (D2915, Sigma): was freshly prepared for each administration by dilution in saline to final concentration (50 mg/ml). Dexamethasone serves as a positive control and was administered topically twice daily for 14 days following cells injections (at Day 42 following human skin transplantation) until the end of the study (Day 56).
The vehicle was administered topically (50 μg) once daily for 14 days as well.
On Day 56, the entire skin graft was excised and placed in 10% formaldehyde in saline overnight. Then, the specimens were placed in 70% ethanol and embedded and stained according to the standard Hematoxylin/Eosin protocol.
Skin graft histological assessment was performed (according to the psoriatic criteria including epidermal thickness) using light microscopy, and two observers blindly performed the evaluations. Epidermal thickness was determined using an ocular micrometer at a minimum of 50 points along the epidermis selected to represent points of maximal and minimal thickness. […]

[2] = cited from earlier work
Ki67 = test: Epidermal proliferation of transplants, Ki67 immunohistochemical staining; format: in vivo, beige-SCID mice; conditions: xenotransplants after 14 days of treatment
Protocol: From the study of Example 11, the human skin xenotransplants were harvested and fixed in 10% saline-buffered formalin overnight followed by 70% ethanol. Sections were stained and visualized with immunohistochemistry.
Antigen retrieval was performed on the slides for 20 minutes in a microwave followed by cooling at room temperature for 25 minutes. Specimens were blocked for 30 minutes to prevent nonspecific binding and incubated with the primary antibody (Ab) overnight. The following primary antibodies were used: mouse anti human Ki67. Samples were then washed and incubated for 30 minutes with a biotinylated secondary antibody (Jackson ImmunoResearch, West Grove, Pa.). Finally, samples were washed and incubated with streptavidin-horseradish peroxidase (Jackson ImmunoResearch, West Grove, Pa.). […] Samples were examined using light microscopy.
Slides were evaluated by experienced blinded observers. The fields of immunostained sections were counted in three areas and presented randomly to the observer(s).

[3] = number of transplants out of 10

C[C@@H]1C[C@H]2[C@@H]3CCC4=CC(=O)C=C[C@]4(C)[C@@]3(F)[C@@H](O)C[C@]2(C)[C@@]1(O)C(=O)CO [Dexamethasone]
Complete Recovery [1, 3]: 9/10 | Partial Recovery [1, 3]: 1/10 | Psoriatic Features [1, 3]: 0/10 | Complete Recovery ([1]; percent of transplants): (90%) | Partial Recovery ([1]; percent of transplants): (10%) | Psoriatic Features ([1]; percent of transplants): (0%)

C#Cc1cccc(Nc2ncnc3cc(OCCOC)c(OCCOC)cc23)c1 [Erlotinib hydrochloride]
Solubility ([2]; in acetone): practically insoluble | Solubility ([2]; in acetonitrile): practically insoluble | Solubility ([2]; in ethyl acetate): practically insoluble | Solubility ([2]; in hexane): practically insoluble | Solubility ([2]; in methanol): slightly soluble | Solubility ([2]; in water): very slightly soluble

C#Cc1cccc(Nc2ncnc3cc(OCCOC)c(OCCOC)cc23)c1 [Erlotinib, N-(3-ethynylphenyl)-6,7-bis(2-methoxyethoxy)-4-quinazolinamine]
proliferation index (Ki-67) compared to vehicle-treated xenotransplants (Ki67): significant decrease
